Biological target: recombinant human SAE enzyme (Homo sapiens (Human), UniProt Q9UBT2)
Test: SAE HTRF enzyme assay
Type: biochemical
Details: for Percent Inhibition: Concentration 0.111 μM; for IC50: class symbols A/B/C
Method in brief: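 Human SAE (0.11 nM) with 0.5 μM ATP, 0.125 μM Sumo-Flag and 0.01 μM Ubc9-GST in HEPES pH 7.5, 5 mM MgCl2, 250 μM GSH; 105 min at 24 °C. Stopped with EDTA; HTRF read after 2 h with Eu-anti-Flag and APC-anti-GST. Percent inhibition or IC50 reported.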

recombinant human SAE enzyme, sequence (Q9UBT2 whole entry): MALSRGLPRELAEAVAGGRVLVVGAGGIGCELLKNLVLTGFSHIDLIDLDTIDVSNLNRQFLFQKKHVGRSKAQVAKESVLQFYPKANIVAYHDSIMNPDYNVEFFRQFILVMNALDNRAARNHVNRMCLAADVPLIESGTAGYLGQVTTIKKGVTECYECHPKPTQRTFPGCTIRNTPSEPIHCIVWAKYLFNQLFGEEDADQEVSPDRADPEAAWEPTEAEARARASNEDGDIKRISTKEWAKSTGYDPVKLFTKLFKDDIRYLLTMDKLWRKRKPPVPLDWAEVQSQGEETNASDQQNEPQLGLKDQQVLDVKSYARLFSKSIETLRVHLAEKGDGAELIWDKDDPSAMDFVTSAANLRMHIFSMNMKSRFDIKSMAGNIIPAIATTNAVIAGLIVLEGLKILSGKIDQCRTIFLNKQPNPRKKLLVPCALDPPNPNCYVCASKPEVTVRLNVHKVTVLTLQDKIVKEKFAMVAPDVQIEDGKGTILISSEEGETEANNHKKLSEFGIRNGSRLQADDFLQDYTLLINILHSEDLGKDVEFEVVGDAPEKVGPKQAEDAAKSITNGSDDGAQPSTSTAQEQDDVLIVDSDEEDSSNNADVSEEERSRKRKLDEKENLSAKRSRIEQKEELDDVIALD
recombinant human SAE enzyme, sequence (Q9UBE0 whole entry partner): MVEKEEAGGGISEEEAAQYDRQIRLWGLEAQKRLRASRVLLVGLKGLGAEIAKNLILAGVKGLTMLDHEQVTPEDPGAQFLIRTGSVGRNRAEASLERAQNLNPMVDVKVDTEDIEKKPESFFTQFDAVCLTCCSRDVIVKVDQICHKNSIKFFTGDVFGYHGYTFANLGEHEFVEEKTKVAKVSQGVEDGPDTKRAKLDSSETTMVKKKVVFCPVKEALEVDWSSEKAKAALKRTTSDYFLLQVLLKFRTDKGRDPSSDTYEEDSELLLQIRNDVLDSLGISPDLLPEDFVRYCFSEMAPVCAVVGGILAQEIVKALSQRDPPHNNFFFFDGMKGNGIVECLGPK

Structure (SMILES)	Percent Inhibition	IC50 [nM]
Cc1sc(C(=O)c2cncnc2N[C@@H]2C[C@H](COS(N)(=O)=O)[C@@H](O)C2)cc1[C@@H]1OCCc2ccc(C(F)(F)F)cc21 (single isomer, unassigned) [I-258a, [(1R,2S,4R)-2-hydroxy-4-{[5-({5-methyl-4-[(1R)-7-(trifluoromethyl)-3,4-dihydro-1H-isochromen-1-yl]-2-thienyl}carbonyl)pyrimidin-4-yl]amino}cyclopentyl]methyl sulfamate or [(1R,2S,4R)-2-hydroxy-4-{[5-({5-methyl-4-[(1S)-7-(trifluoromethyl)-3,4-dihydro-1H-isochromen-1-yl]-2-thienyl}carbonyl)pyrimidin-4-yl]amino}cyclopentyl]methyl sulfamate]	98	< 10
Cc1sc(C(=O)c2cncnc2N[C@@H]2C[C@H](COS(N)(=O)=O)[C@@H](O)C2)cc1[C@@H]1OCCc2ccc(C(F)(F)F)cc21 (single isomer, unassigned) [I-258b, [(1R,2S,4R)-2-hydroxy-4-{[5-({5-methyl-4-[(1R)-7-(trifluoromethyl)-3,4-dihydro-1H-isochromen-1-yl]-2-thienyl}carbonyl)pyrimidin-4-yl]amino}cyclopentyl]methyl sulfamate or [(1R,2S,4R)-2-hydroxy-4-{[5-({5-methyl-4-[(1S)-7-(trifluoromethyl)-3,4-dihydro-1H-isochromen-1-yl]-2-thienyl}carbonyl)pyrimidin-4-yl]amino}cyclopentyl]methyl sulfamate]	72	10 to 100
NS(=O)(=O)OC[C@H]1C[C@@H](Nc2ncncc2C(=O)c2cc([C@@H]3NCCc4ccc(Br)cc43)c(Cl)s2)[C@H](O)[C@@H]1O (single isomer, unassigned) [I-259a, [(1R,2R,3S,4R)-4-{[5-({4-[(1R)-7-bromo-1,2,3,4-tetrahydroisoquinolin-1-yl]-5-chloro-2-thienyl}carbonyl)pyrimidin-4-yl]amino}-2,3-dihydroxycyclopentyl]methyl sulfamate or [(1R,2R,3S,4R)-4-{[5-({4-[(1S)-7-bromo-1,2,3,4-tetrahydroisoquinolin-1-yl]-5-chloro-2-thienyl}carbonyl)pyrimidin-4-yl]amino}-2,3-dihydroxycyclopentyl]methyl sulfamate]	100	< 10
NS(=O)(=O)OC[C@H]1C[C@@H](Nc2ncncc2C(=O)c2cc([C@@H]3NCCc4ccc(Br)cc43)c(Cl)s2)[C@H](O)[C@@H]1O (single isomer, unassigned) [I-259b, [(1R,2R,3S,4R)-4-{[5-({4-[(1R)-7-bromo-1,2,3,4-tetrahydroisoquinolin-1-yl]-5-chloro-2-thienyl}carbonyl)pyrimidin-4-yl]amino}-2,3-dihydroxycyclopentyl]methyl sulfamate or [(1R,2R,3S,4R)-4-{[5-({4-[(1S)-7-bromo-1,2,3,4-tetrahydroisoquinolin-1-yl]-5-chloro-2-thienyl}carbonyl)pyrimidin-4-yl]amino}-2,3-dihydroxycyclopentyl]methyl sulfamate]	97	< 10
Cc1sc(C(=O)c2cncnc2N[C@@H]2C[C@H](COS(N)(=O)=O)[C@@H](O)C2)cc1[C@H]1OCC(F)(F)c2ccc(Cl)nc21 (single isomer, unassigned) [I-260a, [(1R,2S,4R)-4-{[5-({4-[(8R)-2-chloro-5,5-difluoro-5,8-dihydro-6H-pyrano[3,4-b]pyridin-8-yl]-5-methyl-2-thienyl}carbonyl)pyrimidin-4-yl]amino}-2-hydroxycyclopentyl]methyl sulfamate or [(1R,2S,4R)-4-{[5-({4-[(8S)-2-chloro-5,5-difluoro-5,8-dihydro-6H-pyrano[3,4-b]pyridin-8-yl]-5-methyl-2-thienyl}carbonyl)pyrimidin-4-yl]amino}-2-hydroxycyclopentyl]methyl sulfamate]	99	< 10
Cc1sc(C(=O)c2cncnc2N[C@@H]2C[C@H](COS(N)(=O)=O)[C@@H](O)C2)cc1[C@H]1OCC(F)(F)c2ccc(Cl)nc21 (single isomer, unassigned) [I-260b, [(1R,2S,4R)-4-{[5-({4-[(8R)-2-chloro-5,5-difluoro-5,8-dihydro-6H-pyrano[3,4-b]pyridin-8-yl]-5-methyl-2-thienyl}carbonyl)pyrimidin-4-yl]amino}-2-hydroxycyclopentyl]methyl sulfamate or [(1R,2S,4R)-4-{[5-({4-[(8S)-2-chloro-5,5-difluoro-5,8-dihydro-6H-pyrano[3,4-b]pyridin-8-yl]-5-methyl-2-thienyl}carbonyl)pyrimidin-4-yl]amino}-2-hydroxycyclopentyl]methyl sulfamate]	98	< 10
NS(=O)(=O)OC[C@H]1C[C@@H](Nc2ncncc2C(=O)c2cc(C3OCCc4ccc(Cl)cc43)cs2)C[C@@H]1O (single isomer, unassigned) [I-261a, [(1R,2S,4R)-4-{[5-({4-[(1R)-7-chloro-3,4-dihydro-1H-isochromen-1-yl]-2-thienyl}carbonyl)pyrimidin-4-yl]amino}-2-hydroxycyclopentyl]methyl sulfamate or [(1R,2S,4R)-4-{[5-({4-[(1S)-7-chloro-3,4-dihydro-1H-isochromen-1-yl]-2-thienyl}carbonyl)pyrimidin-4-yl]amino}-2-hydroxycyclopentyl]methyl sulfamate]	76	10 to 100
NS(=O)(=O)OC[C@H]1C[C@@H](Nc2ncncc2C(=O)c2cc(C3OCCc4ccc(Cl)cc43)cs2)C[C@@H]1O (single isomer, unassigned) [I-261b, [(1R,2S,4R)-4-{[5-({4-[(1R)-7-chloro-3,4-dihydro-1H-isochromen-1-yl]-2-thienyl}carbonyl)pyrimidin-4-yl]amino}-2-hydroxycyclopentyl]methyl sulfamate or [(1R,2S,4R)-4-{[5-({4-[(1S)-7-chloro-3,4-dihydro-1H-isochromen-1-yl]-2-thienyl}carbonyl)pyrimidin-4-yl]amino}-2-hydroxycyclopentyl]methyl sulfamate]	99	< 10
NS(=O)(=O)OC[C@H]1C[C@@H](Nc2ncncc2C(=O)c2cc([C@@H]3NCc4ccc(Cl)cc43)c(Cl)s2)C[C@@H]1O (single isomer, unassigned) [I-262a, [(1R,2S,4R)-4-{[5-({5-chloro-4-[(1R)-6-chloro-2,3-dihydro-1H-isoindol-1-yl]-2-thienyl}carbonyl)pyrimidin-4-yl]amino}-2-hydroxycyclopentyl]methyl sulfamate or [(1R,2S,4R)-4-{[5-({5-chloro-4-[(1S)-6-chloro-2,3-dihydro-1H-isoindol-1-yl]-2-thienyl}carbonyl)pyrimidin-4-yl]amino}-2-hydroxycyclopentyl]methyl sulfamate]	98	< 10
NS(=O)(=O)OC[C@H]1C[C@@H](Nc2ncncc2C(=O)c2cc([C@@H]3NCc4ccc(Cl)cc43)c(Cl)s2)C[C@@H]1O (single isomer, unassigned) [I-262b, [(1R,2S,4R)-4-{[5-({5-chloro-4-[(1R)-6-chloro-2,3-dihydro-1H-isoindol-1-yl]-2-thienyl}carbonyl)pyrimidin-4-yl]amino}-2-hydroxycyclopentyl]methyl sulfamate or [(1R,2S,4R)-4-{[5-({5-chloro-4-[(1S)-6-chloro-2,3-dihydro-1H-isoindol-1-yl]-2-thienyl}carbonyl)pyrimidin-4-yl]amino}-2-hydroxycyclopentyl]methyl sulfamate]	98	< 10
Cc1sc(C(=O)c2cncnc2N[C@@H]2C[C@H](COS(N)(=O)=O)[C@@H](O)[C@@H]2F)cc1[C@H]1OCCc2ccc(Cl)cc21 (single isomer, unassigned) [I-264a, [(1R,2R,3R,4R)-4-{[5-({4-[(1S)-7-chloro-3,4-dihydro-1H-isochromen-1-yl]-5-methyl-2-thienyl}carbonyl)pyrimidin-4-yl]amino}-3-fluoro-2-hydroxycyclopentyl]methyl sulfamate or [(1R,2R,3R,4R)-4-{[5-({4-[(1R)-7-chloro-3,4-dihydro-1H-isochromen-1-yl]-5-methyl-2-thienyl}carbonyl)pyrimidin-4-yl]amino}-3-fluoro-2-hydroxycyclopentyl]methyl sulfamate]	33	100 to 1000
Cc1sc(C(=O)c2cncnc2N[C@@H]2C[C@H](COS(N)(=O)=O)[C@@H](O)[C@@H]2F)cc1[C@H]1OCCc2ccc(Cl)cc21 (single isomer, unassigned) [I-264b, [(1R,2R,3R,4R)-4-{[5-({4-[(1S)-7-chloro-3,4-dihydro-1H-isochromen-1-yl]-5-methyl-2-thienyl}carbonyl)pyrimidin-4-yl]amino}-3-fluoro-2-hydroxycyclopentyl]methyl sulfamate or [(1R,2R,3R,4R)-4-{[5-({4-[(1R)-7-chloro-3,4-dihydro-1H-isochromen-1-yl]-5-methyl-2-thienyl}carbonyl)pyrimidin-4-yl]amino}-3-fluoro-2-hydroxycyclopentyl]methyl sulfamate]	98	< 10
CN1Cc2ccc(Cl)cc2[C@@H]1c1csc(C(=O)c2cncnc2N[C@@H]2C[C@H](COS(N)(=O)=O)[C@@H](O)C2)c1 (single isomer, unassigned) [I-265a, [(1R,2S,4R)-4-{[5-({4-[(1R)-6-chloro-2-methyl-2,3-dihydro-1H-isoindol-1-yl]-2-thienyl}carbonyl)pyrimidin-4-yl]amino}-2-hydroxycyclopentyl]methyl sulfamate or [(1R,2S,4R)-4-{[5-({4-[(1S)-6-chloro-2-methyl-2,3-dihydro-1H-isoindol-1-yl]-2-thienyl}carbonyl)pyrimidin-4-yl]amino}-2-hydroxycyclopentyl]methyl sulfamate]	99	< 10
